Assay results from ChEMBL document CHEMBL1201862, “PubChem BioAssay data set” (2004).
Where “and” joins values, the source holds several entries; their conditions need not be identical. Equal values may be shown once.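 Dose response: 5 concentrations. Exposure: 48 h. Format: 96-well plates. Endpoint: linear interpolation; highest concentration if not reached. Here, GI50 denotes the concentration required for 50% inhibition of growth.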 Calls of active or inactive are those of the source. No stated cut-off is given here; in the data, active = GI50 up to about 1.1 µM and inactive = higher.

Legend:
Assay in all cases: inhibition of tumour cell growth, NCI panel, 48 h
ACHN = test system: ACHN
CAKI-1 = test system: CAKI-1
DU-145 = test system: DU-145
HCT-15 = test system: HCT-15
HOP-62 = test system: HOP-62
K562 = test system: K562
M14 = test system: M14
Malme-3M = test system: Malme-3M
NCI-H460 = test system: NCI-H460
NCI-H522 = test system: NCI-H522
OVCAR-4 = test system: OVCAR-4
OVCAR-5 = test system: OVCAR-5
RXF 393 = test system: RXF 393
SF-295 = test system: SF-295
SK-MEL-28 = test system: SK-MEL-28
SNB-19 = test system: SNB-19
SNB-75 = test system: SNB-75
SR = test system: SR
UACC-62 = test system: UACC-62
MDA-MB-435 = test system: MDA-MB-435

| Compound | GI50 (ACHN) | GI50 (CAKI-1) | GI50 (DU-145) | GI50 (HCT-15) | GI50 (HOP-62) | GI50 (K562) | GI50 (M14) | GI50 (Malme-3M) | GI50 (NCI-H460) | GI50 (NCI-H522) | GI50 (OVCAR-4) | GI50 (OVCAR-5) | GI50 (RXF 393) | GI50 (SF-295) | GI50 (SK-MEL-28) | GI50 (SNB-19) | GI50 (SNB-75) | GI50 (SR) | GI50 (UACC-62) | GI50 (MDA-MB-435) |
| --- | --- | --- | --- | --- | --- | --- | --- | --- | --- | --- | --- | --- | --- | --- | --- | --- | --- | --- | --- | --- |
| COc1ccc(OC)c(C(=O)c2cccc(C(=O)c3cc(OC)ccc3OC)n2)c1 | 43.5 µM (inactive) | 71.8 µM (inactive) | 93.1 µM (inactive) | 33.1 µM | 37.1 µM (inactive) | 22.3 µM (inactive) | 33.6 µM (inactive) | 80 µM (inactive) | 36.3 µM (inactive) | 29.8 µM (inactive) | > 100 µM (inactive) | 30.5 µM (inactive) | 5.12 µM (inactive) | 29.9 µM (inactive) | 41 µM (inactive) | 43.3 µM (inactive) | 19.9 µM (inactive) | 32.7 µM (inactive) | 31.1 µM (inactive) | – |
| CCCCC(=O)Nc1ccc2cc(C(=O)OC)c(=O)[nH]c2n1 | > 100 µM (inactive) | > 100 µM (inactive) | – | > 100 µM | > 100 µM (inactive) | > 100 µM (inactive) | > 100 µM (inactive) | > 100 µM (inactive) | > 100 µM (inactive) | > 100 µM (inactive) | > 100 µM (inactive) | > 100 µM (inactive) | > 100 µM (inactive) | > 100 µM (inactive) | > 100 µM (inactive) | > 100 µM (inactive) | > 100 µM (inactive) | > 100 µM (inactive) | – | > 100 µM (inactive) |
| N#CC1(C#N)NC(c2ccccc2)C(C#N)(C#N)NC1c1ccccc1 (centres undefined) | > 100 µM (inactive) | 6.59 µM (inactive) | > 100 µM (inactive) | > 100 µM | > 100 µM (inactive) | > 100 µM (inactive) | > 100 µM (inactive) | > 100 µM (inactive) | > 100 µM (inactive) | 27.4 µM (inactive) | > 100 µM (inactive) | > 100 µM (inactive) | > 100 µM (inactive) | > 100 µM (inactive) | > 100 µM (inactive) | > 100 µM (inactive) | > 100 µM (inactive) | – | > 100 µM (inactive) | > 100 µM (inactive) |
| O=c1c2ccc(S(=O)(=O)c3ccc4c(=O)n5c6ccccc6nc5c5cccc3c45)c3cccc(c32)c2nc3ccccc3n12 | 15.2 µM (inactive) | > 100 µM (inactive) | 59.6 µM (inactive) | 93.5 µM | 37.8 µM (inactive) | – | > 100 µM (inactive) | > 100 µM (inactive) | > 100 µM (inactive) | 27.7 µM (inactive) | – | > 100 µM (inactive) | 14.3 µM (inactive) | 15.3 µM (inactive) | > 100 µM (inactive) | 16.6 µM (inactive) | – | – | 45.5 µM (inactive) | > 100 µM (inactive) |
| CCOP(=O)(OCC)C(Cc1ccc(Cl)cc1)NS(=O)(=O)c1ccc(C)cc1 (centres undefined) | > 100 µM (inactive) | > 100 µM (inactive) | > 100 µM (inactive) | > 100 µM | > 100 µM (inactive) | > 100 µM (inactive) | > 100 µM (inactive) | > 100 µM (inactive) | > 100 µM (inactive) | 67.9 µM (inactive) | > 100 µM (inactive) | > 100 µM (inactive) | > 100 µM (inactive) | > 100 µM (inactive) | > 100 µM (inactive) | > 100 µM (inactive) | – | – | > 100 µM (inactive) | > 100 µM (inactive) |
| CC(C)=NN/C=N\C(C#N)=C(/N)C#N | > 100 µM (inactive) | > 100 µM (inactive) | > 100 µM (inactive) | > 100 µM | > 100 µM (inactive) | > 100 µM (inactive) | > 100 µM (inactive) | 69.2 µM (inactive) | > 100 µM (inactive) | > 100 µM (inactive) | > 100 µM (inactive) | > 100 µM (inactive) | > 100 µM (inactive) | > 100 µM (inactive) | > 100 µM (inactive) | > 100 µM (inactive) | 0.466 µM (active) | > 100 µM (inactive) | > 100 µM (inactive) | – |
| CCCCCc1c(CCCC)c(O)nc2nc(NC(=O)CCCC)ccc12 | > 100 µM (inactive) | > 100 µM (inactive) | – | > 100 µM | > 100 µM (inactive) | > 100 µM (inactive) | > 100 µM (inactive) | > 100 µM (inactive) | > 100 µM (inactive) | > 100 µM (inactive) | > 100 µM (inactive) | > 100 µM (inactive) | > 100 µM (inactive) | > 100 µM (inactive) | > 100 µM (inactive) | > 100 µM (inactive) | > 100 µM (inactive) | 51.9 µM (inactive) | – | > 100 µM (inactive) |
| O=C1C=C(C2=CC(=O)C(=O)c3ccccc32)c2ccccc2C1=O | 21 µM (inactive) | 22 µM (inactive) | 14.9 µM (inactive) | 11.8 µM | 24.2 µM (inactive) | 3.3 µM (inactive) | 6.46 µM (inactive) | 3.44 µM (inactive) | – | 2.76 µM (inactive) | 47.6 µM (inactive) | 18.8 µM (inactive) | 10.9 µM (inactive) | 21.2 µM (inactive) | 4.26 µM (inactive) | 29.7 µM (inactive) | 22.4 µM (inactive) | – | 5.37 µM (inactive) | 1.93 µM (inactive) |
| CCC(=O)NCCc1c2c3c(ccnc3c3ncsc13)-c1ccccc1N2 [KUANONIAMINE C] | 0.583 µM (active) | 5.74 µM (inactive) | 0.603 µM (active) | 2.51 µM | 2.94 µM (inactive) | 1.53 µM (inactive) | 2.73 µM (inactive) | 2.62 µM (inactive) | 1.16 µM (inactive) | 2.62 µM (inactive) | 30.4 µM (inactive) | 8.17 µM (inactive) | 4.16 µM (inactive) | 1.12 µM (active) | 2.56 µM (inactive) | 4.36 µM (inactive) | 6.89 µM (inactive) | – | 1.63 µM (inactive) | 2.26 µM (inactive) |
| c1ccc(C(NC2CCCCC2NCCNC2CCCCC2NC(c2ccccc2)(c2ccccc2)c2ccccc2)(c2ccccc2)c2ccccc2)cc1 (centres undefined) | 90.2 µM (inactive) | 64.4 µM (inactive) | 96.6 µM (inactive) | > 100 µM | 34.1 µM (inactive) | 44.5 µM (inactive) | – | – | 26.8 µM (inactive) | 14.6 µM (inactive) | 26.6 µM (inactive) | > 100 µM (inactive) | – | > 100 µM (inactive) | > 100 µM (inactive) | 74.6 µM (inactive) | – | 81.7 µM (inactive) | 26.2 µM (inactive) | 17.7 µM (inactive) |
| CCSc1cc(C(=O)OC)c2n(c1=O)CCCC2 | > 100 µM (inactive) | > 100 µM (inactive) | > 100 µM (inactive) | > 100 µM | > 100 µM (inactive) | – | > 100 µM (inactive) | > 100 µM (inactive) | – | > 100 µM (inactive) | > 100 µM (inactive) | > 100 µM (inactive) | > 100 µM (inactive) | > 100 µM (inactive) | > 100 µM (inactive) | > 100 µM (inactive) | > 100 µM (inactive) | – | > 100 µM (inactive) | > 100 µM (inactive) |
| O=C1OC(c2ccccc2)(c2ccccc2)c2ccc3ccc(F)cc3c21 | 49.8 µM (inactive) | 33.3 µM (inactive) | – | 35.5 µM | > 100 µM (inactive) | 6.28 µM (inactive) | > 100 µM (inactive) | > 100 µM (inactive) | > 100 µM (inactive) | 51.1 µM (inactive) | > 100 µM (inactive) | > 100 µM (inactive) | > 100 µM (inactive) | 13 µM (inactive) | > 100 µM (inactive) | > 100 µM (inactive) | 37.6 µM (inactive) | 10.7 µM (inactive) | 26.9 µM (inactive) | – |
| COc1ccc(-c2nc(SC)n(C3OC(COC(C)=O)C(OC(C)=O)C(OC(C)=O)C3OC(C)=O)c(=O)c2C#N)cc1 (centres undefined) | – | > 100 µM (inactive) | > 100 µM (inactive) | > 100 µM | – | > 100 µM (inactive) | 58.1 µM (inactive) | 65.6 µM (inactive) | – | – | – | – | – | – | > 100 µM (inactive) and 72.1 µM (inactive) | – | – | > 100 µM (inactive) | – | > 100 µM (inactive) |
| COc1ccc(/C(C)=N/NC(=S)N(C)C)c(O)c1 | 6.41 µM (inactive) | 4.92 µM (inactive) | 11.5 µM (inactive) | – | 5.61 µM (inactive) | – | 2.72 µM (inactive) | – | 14 µM (inactive) | 12.9 µM (inactive) | 2.32 µM (inactive) | 3.42 µM (inactive) | – | 4.05 µM (inactive) | 16.6 µM (inactive) | 22 µM (inactive) | 43.8 µM (inactive) | 36.3 µM (inactive) | 4.35 µM (inactive) | 27.7 µM (inactive) |
| Cc1cc(NC(=O)C(=O)Cc2cnc3ccccc3n2)c(S(=O)(=O)O)cc1Cl | > 100 µM (inactive) | > 100 µM (inactive) | > 100 µM (inactive) | > 100 µM | – | > 100 µM (inactive) | > 100 µM (inactive) | > 100 µM (inactive) | > 100 µM (inactive) | > 100 µM (inactive) | > 100 µM (inactive) | > 100 µM (inactive) | – | > 100 µM (inactive) | > 100 µM (inactive) | > 100 µM (inactive) | > 100 µM (inactive) | – | > 100 µM (inactive) | > 100 µM (inactive) |
| FC(F)(F)C1(C(F)(F)F)OC(Cl)(Cl)C(Cl)(Cl)O1 | > 10 µM (inactive) | > 10 µM (inactive) | > 10 µM (inactive) | > 10 µM | > 10 µM (inactive) | – | > 10 µM (inactive) | > 10 µM (inactive) | > 10 µM (inactive) | > 10 µM (inactive) | > 10 µM (inactive) | > 10 µM (inactive) | > 10 µM (inactive) | > 10 µM (inactive) | > 10 µM (inactive) | > 10 µM (inactive) | – | – | > 10 µM (inactive) | > 10 µM (inactive) |
